For data set [1], the system named is nematodes. The data set can be described thus: Lifespan extension in model organism (nematode), survival analysis (Test Examples 8 and 10). The note with it: for average lifespan extended compared to the control: 1% DMSO. The class given is in vivo. As to the method:
The ATP prodrug prepared in Example 1, dissolved in DMSO, was added to the liquid Nematode Growth Medium (NGM) that had been sterilized and maintained at 60° C. at a final concentration of 100 μM, so as to prepare an ATP prodrug-containing NGM plate. At this time, the final concentration of DMSO in the NGM was adjusted to 1%. […] Onto the surface of the NGM plate used immediately before survival analysis, the bacterium Escherichia coli strain OP50 stirred in M9 buffer was applied as food for the nematodes.
Thirty-five nematodes were transferred to the NGM plate, after performing age synchronization. The nematodes were transferred to a new NGM plate every day from the first day of adulthood (the third day) to the seventh day, and every two days from the eighth day until the nematodes died. At the same time, the numbers of living nematodes and dead nematodes were recorded. Survival status of the nematodes was determined by whether they reacted when touched. Average lifespan was calculated from the results obtained, and the average lifespans were compared to determine the lifespan extension rate of the nematodes. This experiment was conducted four times to confirm the reproducibility (In cases of both with and without the addition of proATP, n=114).
ATP prodrug-neo dissolved in DMSO, was added to the liquid Nematode Growth Medium (NGM) that had been sterilized and maintained at 60° C. at a final concentration of 200 µM, so as to prepare an ATP prodrug-neo-containing NGM plate. At this time, the final concentration of DMSO in the NGM was adjusted to 1%. […]
Thirty-five nematodes were transferred to the NGM plate, after performing age synchronization. […] At the same time, the numbers of living nematodes and dead nematodes were recorded. Survival status of the nematode was determined by whether they reacted when touched. Average lifespan was calculated from the results obtained, and the average lifespans were compared to determine the lifespan extension rate of the nematodes. […]

Data set [2] has as its system nematodes. As to the kind of experiment: ATP level in model organism (nematode). The class given is in vivo. The note with it: nematodes on NGM plate with 100 μM ATP prodrug, seventh day of cultivation. As for the experimental part: The culture of the nematodes and the addition of the ATP prodrug to the nematodes were conducted under the same conditions as those in the survival analysis. On the seventh day of cultivation, five nematodes were collected for each condition, totaling twenty-five nematodes, and were transferred to a 24-well plate containing PBS, followed by conducting ultrasonic disruption while kept on ice for one minute. Then, the crushed liquid was collected into a microtube, and after centrifugation (15,000 rpm, 30 minutes, 4° C.), the supernatant was collected. Amount of the ATP in the supernatant was quantified using the ATP measurement kit (Dojin Chemical), and the amount of the ATP per nematode was calculated.

Data set [3] relates to Human Dermal Fibroblasts (HDF) derived from human. The data set can be described thus: Intracellular ATP level in young and aged human dermal fibroblasts (Test Example 4 A). The class given is cell-based. The note with it: 50 μM, 24 hours. As for the experimental part: (§1) Human Dermal Fibroblasts (HDF) derived from human (Toyobo) were seeded at 5000 cells/well in DMEM low glucose, 10% FBS, and 1% penicillin/streptomycin, and three hours later, the ATP prodrug dissolved in DMSO was added at either 0 or 50 μM. (A) The sample was incubated for 24 hours. The amount of DNA was measured using picogreen, and converted to cell count from a calibration curve separately created. The ATP level was quantified using the ATP measurement kit (Dojin Chemical), and the ATP level per cell was calculated. (B) 75 μM of the ATP prodrug was added to the HDF derived from human, and the medium was replaced with serum-free medium comprising 200 μM of hydrogen peroxide after 24 hours, followed by incubating the mixture for 6 hours. After 6 hours, the cells were washed, and the cell numbers were compared using the WST-8 kit.

Data set [4] relates to Human liver cancer cells (HepG2). The data set can be described thus: Intracellular ATP level in liver cancer cells (Test Example 6). The data set is classed as cell-based. The note with it: HepG2 (cultured cells), varying concentrations, 24 hours. As for the experimental part: Human liver cancer cells (HepG2) were seeded at 5000 cells per well in DMEM with 10% FBS and 1% penicillin/streptomycin, and after 3 hours, a solution of the ATP prodrug prepared in Example 1 in DMSO at varying concentrations was added to the wells. After 24 hours, the amount of DNA was measured using picogreen, and converted to cell count based on a calibration curve separately created. The ATP level was quantified using the ATP measurement kit (Dojin Chemical), resulting in the ATP level per cell.

The next data set concerns MCF7 cells. As to the kind of experiment: Effect of ATP analogs on intracellular ATP concentration in MCF7 cells (Test Example 2). The class given is cell-based, human. To be noted: MCF7, 100 μM, one day and two days, normalized to DNA, compared with adenosine, AMP. As for the experimental part:
Adenosine, AMP, ATP, and the ATP prodrug were added to the culture medium of MCF7 cells (5000 cells/well) at a concentration of 100 μM, and, one day and two days later, ATP was measured, followed by normalizing the results to the DNA amounts.

Another data set has as its system normal pig liver cells. The data set can be described thus: Intracellular ATP level in primary liver cells (Test Example 6). The class given is cell-based. To be noted: varying concentrations, 24 hours. As to the method:
In addition to this study, normal pig liver cells were seeded at 5000 cells per well in the liver cell differentiation environment (Hepatp-STIM, 1 μg/100 mL EGF, 1% penicillin/streptomycin), and after 3 hours, a solution of the ATP prodrug in DMSO at varying concentrations was added to the wells. The DNA amount was measured using picogreen 24 hours later. The ATP level was quantified using the ATP measurement kit (Dojin Chemical), and the ATP level was provided.

The subject of a further data set is Human fibroblasts (NHDF). The data set can be described thus: Effect on intracellular ATP concentration using normal cells (Test Example 3). The class given is cell-based. The note with it: 200 μM ATP prodrug, one day, ATP per cell. As to the method: Human fibroblasts (NHDF) (Takara Bio) were seeded at 5000 cells per well in DMEM low glucose, 10% FBS, and 1% penicillin/streptomycin, and, after 3 hours, a solution of the ATP prodrug prepared in Example 1 in DMSO at varying concentrations was added to the wells. One day later, the amount of DNA was measured using picogreen, and converted to cell count from a calibration curve separately created. The ATP level was quantified using the ATP measurement kit (Dojin Chemical), and the ATP level per cell was calculated.

Data set [5] has as its system NHDF (normal human dermal fibroblasts). As to the kind of experiment: Cytotoxicity by LDH release (Test Example 5). The class given is cell-based. To be noted: 24 hours. As for the experimental part: NHDF (normal human dermal fibroblasts) were seeded at 5000 cells per well in DMEM/F12 with 10% FBS and 1% penicillin/streptomycin, and after 3 hours, a solution of the ATP prodrug prepared in Example 1 in DMSO at varying concentrations was added to the wells. After 24 hours, the release of the cytotoxicity marker, lactate dehydrogenase (LDH), was quantified using the LDH assay kit (Dojin Chemical), and the cytotoxicity was calculated.
A general note: LDH leaks from cells whose membrane has failed.

Data set [6] has as its system MCF7 (human breast cancer cells). As to the kind of experiment: Effect of ATP prodrug on intracellular ATP concentration in MCF7 cells (Test Example 1). The data set is classed as cell-based. The note with it: MCF7, 100 μM ATP prodrug, after 3 days, ATP per cell. As for the experimental part: MCF7 (human breast cancer cells) (RIKEN BRC) were seeded at 5000 cells per well in DMEM low glucose, 10% FBS, and 1% penicillin/streptomycin, and, after 3 hours, solutions of the ATP prodrug prepared in Example 1 in DMSO at varying concentrations were added to those wells. Three days later, the amounts of DNA were measured using picogreen, and converted to cell counts from a calibration curve separately created. The amount of ATP was quantified using the ATP measurement kit (Dojin Chemical), and the amount of ATP per cell was calculated.

Data set [7] relates to AMP-activated protein kinase (AMPK). As to the kind of experiment: Intracellular ATP levels using AMPK inhibitor (Test Example 7). The note with it: normal human dermal fibroblasts, ATP prodrug 100 μM, 24 hours.
The test system of another data set is HDF derived from human. The data set can be described thus: Oxidative stress load (hydrogen peroxide) on aged cells, cell number by WST-8 (Test Example 4 B). The class given is cell-based. To be noted: HDF from person, 75 μM ATP prodrug 24 hours, then 200 μM hydrogen peroxide 6 hours. As for the experimental part:
as §1
(Tetrazolium assays rely on reduction of a dye to a coloured formazan, in cell work by metabolically active cells.)

Data set [8] deals with HDF75 (human dermal fibroblasts derived from a person). As to the kind of experiment: Effect of ATP prodrug-neo on intracellular ATP concentration (Test Example 9). The data set is classed as cell-based. The note with it: HDF75, varying concentrations, 24 hours, ATP per cell. As for the experimental part: HDF75 (human dermal fibroblasts derived from a person) (Cell Applications, Inc.) were seeded at 5000 cells per well in the human dermal fibroblast growth medium, and after 3 hours, a solution of the ATP prodrug-neo prepared in Example 2 in DMSO at varying concentrations was added to the well. After 24 hours, the amount of DNA was measured using the picogreen and converted to cell count from a calibration curve separately created. The amount of ATP was quantified using the ATP measurement kit (Dojin Chemical), and the amount of ATP per cell was calculated.

The conditions of data set [9]: cited from earlier work.
Data set [10] concerns nematodes. To be noted: nematode, literature values of other drugs; cited from earlier work.

Read-outs that look alike come from different tables or passages of the source.

For the compound `CCC(CC)COC(=O)[C@H](C)N[P@](=O)(OC[C@H]1O[C@@H](n2cnc3c(N)ncnc32)[C@H](O)[C@@H]1O)Oc1ccccc1` [ATP prodrug, (S)-2-Ethylbutyl 2-(((S)-(((2R,3S,4R,5R)-5-(6-amino-9H-purine-9-yl)-3,4-dihydroxy-tetrahydrofuran-2-yl)methoxy) (phenoxy)phosphoryl)amino)propanoate], the “Lifespan Extension Rate” value with nematodes [1] (nematode, the present invention) worked out at 133%. In addition, the “average lifespan extended compared to the control” value with nematodes [1] (nematodes on NGM plate with 100 μM ATP prodrug) is given as “approximately 33%”. Further, the “amount of ATP per nematode higher than control” value with nematodes [2] is reported as “approximately 23%”. The “intracellular ATP levels” value (in data set [3]; in data set [4]; with normal pig liver cells) was “increased” each time. Also, the “intracellular ATP level” value with MCF7 cells is “increased”. For the same compound, in the data set with Human fibroblasts (NHDF), the “intracellular ATP level compared to the control (0 μM)” value amounted to 1.7 times. For the same compound, the “amount of LDH release” value in data set [5] (256 μM) is reported as “remains low”. For the same compound, the cytotoxicity to cells result in data set [5] (LDH assay) is given as “low cytotoxicity”. Besides, the “intracellular ATP amount compared to the control level” value in data set [6] is “approximately 2.5 times”. The “AMPK activation (suggested from inhibitor experiment)” value in [7] is recorded as “activates the AMPK”. In the data set with HDF derived from human, the “cell number under oxidative stress” value was “suppresses the decrease in cell number”.

As for `C[C@H](NP(=O)(N[C@@H](C)C(=O)OCC(C)(C)C)OC[C@H]1O[C@@H](n2cnc3c(N)ncnc32)C(O)C1O)C(=O)OCC(C)(C)C` (stereo partly shown) [ATP prodrug-neo], the “average lifespan extended compared to the control” value in the data set with nematodes [1] (nematodes on NGM plate with 200 µM ATP prodrug-neo) is “approximately 26%”. For the same compound, the “intracellular ATP levels” value in data set [8] was “increased”.

Regarding `Nc1ncnc2c1ncn2[C@@H]1O[C@H](COP(=O)(O)OP(=O)(O)OP(=O)(O)O)[C@@H](O)[C@H]1O` [ATP, adenosine triphosphate], the half-life in blood result in data set [9] was “about 10 seconds”.

As for `CN(C)C(=N)N=C(N)N` [Metformin], the “Lifespan Extension Rate” value in the data set with nematodes [10] is 127%.

In the case of `NC(=O)c1cccnc1` [Nicotinamide], in the data set with nematodes [10], the “Lifespan Extension Rate” value was 116%.

Take `Oc1ccc(C=Cc2cc(O)cc(O)c2)cc1` [Resveratrol]: the “Lifespan Extension Rate” value in the data set with nematodes [10] is on record as 110%.

(Values after US20260115216A1, “NUCLEIC ACID PRECURSOR” (priority 2022, published 2026).)
